Here are results for 1 compound from patent US10941180B2, “Peptoid compound, and derivative, salt, preparation method and use thereof” (BOE Technology Group Co., Ltd., priority 2018, dated 2021).

Like-named read-outs stand apart in the source and are kept apart here. Starred links: 1 amine or outer side, 2 acyl side, 3 side chain; linkers in the order of their positions; H or OH if unused. Non-standard residues stand in square brackets, D forms with d. Residues, ends and D or L forms follow the SMILES beside them. X2 = O=C(CN(CCc1ccc(-c2ccccc2)cc1)[*:1])[*:2]; Gly(N-piperonyl) = O=C(O)CNCc1ccc2c(c1)OCO2; X1 = CC(c1ccccc1)N(CC(=O)[*:2])[*:1]; Gly(N-2-aminoethyl) = NCCNCC(=O)O; Nleu = CC(C)CNCC(=O)O; Nlys = NCCCCNCC(=O)O

The target of assay [1] is T1, Her2 protein (Homo sapiens, UniProt P04626).
T1 construct: purchased Sigma (USA)
Kind of assay: Binding ability to Her2 protein by surface plasmon resonance imaging (SPRi). The protocol: (§1) The SPRi apparatus described in the following examples was Plexera Kx5V2, Plexera Bioscience LLC, USA; and phosphate buffer saline (PBS), phosphoric acid, and proteinase K were prepared according to the product instruction manual.
Unless otherwise indicated, “Her2 protein” herein refers to the full-length Her2 protein.
The specific steps for testing the binding ability of the peptoid compound of Preparation Example 1 or the peptoid Derivative of Preparation Example 2 to the Her2 protein by surface plasmon resonance imaging techniques are shown as follows:
(1) dissolving the peptoid compound of Preparation Example 1 or the peptoid derivative of Preparation Example 2 into ddH2O at a concentration of 1 to 1000 μM to prepare a peptoid compound molecular probe sample to be spotted at a gradient concentration of 1-1000 μM;
(2) spotting the above peptoid compound molecular probe sample on a surface of a 3D chip (PlexArray HT, Plexera Bioscience, USA), in which each sample is repeated for 3 points, incubated at 4° C. for 12 hours, and washed by 10×PBS, 1×PBS and ultrapure water in sequence. The chip was then blocked with 1 M of aminoethanol hydrochloride for 30 minutes, then washed 5 times with ultrapure water, and finally dried with clean nitrogen; […]

The target in assay [2] is T2, Her2 protein in the serum (Homo sapiens, UniProt P04626).
T2 construct: introducing the serum of the patient with breast cancer and the normal person (diluted 1:5000 in volume); from tissue; host or cells: human serum (breast cancer patients with high Her2 expression, and normal persons)
Kind of assay: Detection of serum signals of breast cancer patients and normal persons by SPRi with the peptoid probe chip. It counts as binding. The note with it: serum diluted 1:5000; probe concentrations 80 μM, 400 μM, 2 mM, 10 mM, 50 mM; FIG. 3. The procedure: as §1
Unless otherwise indicated, “patients with breast cancer” herein refers to patients with breast cancer having a high Her2 expression.
The specific steps for testing the detection of the peptoid compound of Preparation Example 1 or the peptoid Derivative of Preparation Example 2 for the blood of the patients with breast cancer by surface plasmon resonance imaging techniques are shown as follows:
(1) in the same manner as in Experimental Example 1, preparing the same 3D chip as in Experimental Example 1, mounting the chip on the SPRi instrument, measuring SPRi angle and adjusting it to the optimal optical position, in which relevant detection points including sample points and blank points are selected in the detection area, and the experimental flow rate is set to 2 μL/s; […]

T1 sequence (P04626 23-1255): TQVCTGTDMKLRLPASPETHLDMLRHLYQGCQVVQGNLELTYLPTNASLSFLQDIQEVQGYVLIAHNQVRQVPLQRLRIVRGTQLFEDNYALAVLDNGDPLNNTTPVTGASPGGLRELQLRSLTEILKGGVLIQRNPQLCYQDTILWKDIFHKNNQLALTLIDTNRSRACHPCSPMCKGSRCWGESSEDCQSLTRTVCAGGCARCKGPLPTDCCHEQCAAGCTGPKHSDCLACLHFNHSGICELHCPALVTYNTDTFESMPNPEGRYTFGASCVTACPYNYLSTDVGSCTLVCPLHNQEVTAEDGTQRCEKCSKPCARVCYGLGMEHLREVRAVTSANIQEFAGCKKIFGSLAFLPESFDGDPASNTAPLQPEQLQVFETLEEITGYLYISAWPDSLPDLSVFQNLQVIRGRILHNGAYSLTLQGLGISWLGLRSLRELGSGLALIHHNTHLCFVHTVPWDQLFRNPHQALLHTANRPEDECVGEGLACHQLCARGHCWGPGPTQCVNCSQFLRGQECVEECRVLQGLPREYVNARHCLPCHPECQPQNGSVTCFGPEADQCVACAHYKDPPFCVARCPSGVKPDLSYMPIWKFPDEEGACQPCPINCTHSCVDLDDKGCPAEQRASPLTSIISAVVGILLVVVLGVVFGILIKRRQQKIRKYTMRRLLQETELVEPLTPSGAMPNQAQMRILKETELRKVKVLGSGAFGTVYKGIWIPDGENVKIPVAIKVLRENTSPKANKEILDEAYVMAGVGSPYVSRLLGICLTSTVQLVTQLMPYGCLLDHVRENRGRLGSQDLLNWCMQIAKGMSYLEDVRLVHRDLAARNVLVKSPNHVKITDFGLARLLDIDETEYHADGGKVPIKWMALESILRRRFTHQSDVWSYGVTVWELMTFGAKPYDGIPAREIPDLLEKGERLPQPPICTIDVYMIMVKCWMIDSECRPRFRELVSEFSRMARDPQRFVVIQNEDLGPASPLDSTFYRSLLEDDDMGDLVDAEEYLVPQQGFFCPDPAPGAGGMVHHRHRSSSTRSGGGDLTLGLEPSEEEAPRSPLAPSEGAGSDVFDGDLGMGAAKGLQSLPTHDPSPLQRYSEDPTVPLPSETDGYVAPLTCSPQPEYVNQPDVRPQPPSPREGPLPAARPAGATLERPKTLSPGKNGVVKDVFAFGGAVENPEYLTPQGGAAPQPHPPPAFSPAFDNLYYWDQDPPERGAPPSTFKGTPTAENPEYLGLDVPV
T2 sequence (P04626 23-647 limits assumed): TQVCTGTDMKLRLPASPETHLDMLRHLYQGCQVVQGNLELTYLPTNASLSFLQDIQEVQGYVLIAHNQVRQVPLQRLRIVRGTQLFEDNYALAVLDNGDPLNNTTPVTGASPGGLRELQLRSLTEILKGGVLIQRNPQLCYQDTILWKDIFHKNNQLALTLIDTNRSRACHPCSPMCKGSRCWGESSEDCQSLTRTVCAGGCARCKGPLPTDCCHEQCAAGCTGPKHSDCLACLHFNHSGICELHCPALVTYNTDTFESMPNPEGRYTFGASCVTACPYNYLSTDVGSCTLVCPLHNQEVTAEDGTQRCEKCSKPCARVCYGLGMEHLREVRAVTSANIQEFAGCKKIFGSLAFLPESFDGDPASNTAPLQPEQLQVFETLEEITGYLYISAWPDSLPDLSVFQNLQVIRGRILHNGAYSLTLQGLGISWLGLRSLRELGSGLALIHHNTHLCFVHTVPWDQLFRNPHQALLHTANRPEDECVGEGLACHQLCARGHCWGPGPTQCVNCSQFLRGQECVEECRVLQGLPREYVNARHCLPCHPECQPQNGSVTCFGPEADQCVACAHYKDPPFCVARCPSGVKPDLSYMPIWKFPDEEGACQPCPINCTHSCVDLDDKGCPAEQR

In the case of `CC(C)CN(CC(=O)N(CCCCN)CC(=O)N(CC(=O)N(CCCCN)CC(=O)N(CCCCN)CC(=O)N(CCN)CC(=O)N(CCc1ccc(-c2ccccc2)cc1)CC(N)=O)Cc1ccc2c(c1)OCO2)C(=O)CN(C(=O)CNCCCCN)C(C)c1ccccc1` (stereo not drawn) [Preparation Example 1] (H-[Nlys][X1][Nleu][Nlys][Gly(N-piperonyl)][Nlys][Nlys][Gly(N-2-aminoethyl)][X2]-NH2), the Kd in assay [1] (probe spotted on 3D chip, Her2 at 2.632, 1.316, 0.658, 0.329 μM, fitted with BIAevalution 4.1, read-out: equilibrium dissociation constant KD) was 61.8 nM; in assay [1] (read-out: equilibrium dissociation constant KD in the binding kinetic constant with Her2 (order of magnitude)), approximately 10 nM. For the same compound, the “distinction of serum samples of breast cancer patients from normal persons (ΔAU signal)” value in assay [2] was “clearly distinguish the serum samples of the patients with breast cancer”.
